Assays:
[1] = biological target: T1, anticalin FluA, mutein of Pieris brassicae bilin-binding protein (Bbp): Asn34Ser, Ser35Pro, Val36Asn, Glu37Gly, Asn58Arg, His60Asp, Ile69Met, Leu88Arg, Tyr90Val (Pieris brassicae, UniProt P09464, E111K/E52G/F142H/H75D/I84M/K102S/K110R/K131R/K150M/L103R/N112T/N16D/N36Q/N49S/N73R/Q140W/S50P/V108Y/V51N/Y105V/Y129S); details: fluorescence titration, excitation 280 nm, emission 340 nm, 1 μM anticalin, PBS with 1 mM EDTA, pH 7.4, 25° C.
[2] = biological target: anticalin FluB, mutein of Pieris brassicae bilin-binding protein (Bbp): Asn34Gln, Ser35His, Val36Trp, Glu37Asp, Asn58Arg, His60Arg, Ile69His, Glu70Lys, Leu88Val (Pieris brassicae, UniProt P09464, E52D/E85K/F142H/H75R/I84H/K102S/K110R/K131R/K150M/L103V/N112G/N16D/N36Q/N49Q/N73R/Q140W/S50H/V108R/V51W/Y105R/Y129R); details: fluorescence titration, excitation 280 nm, emission 340 nm, 1 μM anticalin, PBS with 1 mM EDTA, pH 7.4, 25° C.
Chain of UniProt P09464 (P09464 other isoform, or with tags, fused parts or gaps with the stated changes): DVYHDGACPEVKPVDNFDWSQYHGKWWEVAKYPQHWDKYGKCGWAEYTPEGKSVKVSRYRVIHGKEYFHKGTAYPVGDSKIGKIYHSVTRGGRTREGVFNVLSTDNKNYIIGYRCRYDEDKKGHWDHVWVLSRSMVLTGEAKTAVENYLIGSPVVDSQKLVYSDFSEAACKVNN

[3] = biological target: recombinant Pieris brassicae bilin-binding protein (Bbp), parent (Pieris brassicae, UniProt P09464, K102S/K150M/N16D/N36Q); details: control experiment corresponding to that with FluA, excitation 490 nm, emission 512 nm
Chain of recombinant Pieris brassicae bilin-binding protein (Bbp), parent (P09464 other isoform, or with tags, fused parts or gaps K102S/K150M/N16D/N36Q): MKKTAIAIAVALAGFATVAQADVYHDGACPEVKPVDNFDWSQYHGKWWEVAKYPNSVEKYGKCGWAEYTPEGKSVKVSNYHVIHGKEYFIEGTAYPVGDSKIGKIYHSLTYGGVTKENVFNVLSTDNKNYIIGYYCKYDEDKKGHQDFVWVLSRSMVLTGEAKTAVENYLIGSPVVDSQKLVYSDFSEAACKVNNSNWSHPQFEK

[4] = biological target: T1, anticalin FluA, mutein of Pieris brassicae bilin-binding protein (Bbp): Asn34Ser, Ser35Pro, Val36Asn, Glu37Gly, Asn58Arg, His60Asp, Ile69Met, Leu88Arg, Tyr90Val; details: fluorescein 1 μM, excitation 490 nm, emission 512 nm, PBS with 1 mM EDTA, pH 7.4, 25° C.

T1 sequence (P09464 other isoform, or with tags, fused parts or gaps with the stated changes): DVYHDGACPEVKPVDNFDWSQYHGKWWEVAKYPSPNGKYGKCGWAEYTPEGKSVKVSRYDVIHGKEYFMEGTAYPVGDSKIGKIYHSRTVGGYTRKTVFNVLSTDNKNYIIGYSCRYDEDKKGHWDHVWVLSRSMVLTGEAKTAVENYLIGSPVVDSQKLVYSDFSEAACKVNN

Row | Compound | Dissociation constant (Kd) [1] [nM] | Dissociation constant (Kd) [2] [nM] | Quenching of the fluorescence of fluorescein [3] | Quenching of the fluorescence intensity of fluorescein in the complex [4] [%]
1 | O=C(O)CCCC(=O)Nc1ccc2c(c1)C(=O)OC21c2ccc(O)cc2Oc2cc(O)ccc21 [4-Glutarylamidofluorescein, 4-glutarylamido-fluorescein] | 601 ± 16 | 4700 ± 510 | – | –
2 | Nc1ccc2c(c1)C(=O)OC21c2ccc(O)cc2Oc2cc(O)ccc21 [4-Aminofluorescein, 4-amino-fluorescein] | 224 ± 6 | 2840 ± 300 | – | –
3 | O=C1OC2(c3ccc(O)cc3Oc3cc(O)ccc32)c2ccccc21 [Fluorescein, fluorescein] | 118 ± 14 | 5730 ± 860 | no comparable fluorescence quenching was found | 99.7±0.3

Source: patent US8536307B2, “Anticalins” (Pieris AG, priority 1997, dated 2013)
